From paper PMC4629079 (Acta Pharmaceutica Sinica. B, 2014)
Read-outs that look alike come from different tables or passages of the source.

What was measured:
A/FM/1/47 = assay: Anti-influenza A CPE inhibitory assay in MDCK cells; format: cell-based, influenza A/FM/1/47(H1N1); conditions: for IC50: CPE, Reed and Muench
Cox B3 = assay: Anti-Coxsackie B3 CPE inhibitory assay in Vero cells; format: cell-based, Coxsackie viruses (Cox B3 Nancy strain); conditions: for IC50: Cox B3, 158TCID50, CPE, Reed and Muench
HSV-1 = assay: Anti-HSV-1 CPE assay in Vero cells; format: cell-based, HSV-1 virus
B/Jifang/13/97 = assay: Anti-influenza B CPE assay; format: cell-based

Compound	IC50 (A/FM/1/47; Influenza A virus, MDCK) [µM]	IC50 (Cox B3; Vero) [µM]	IC50 (HSV-1; Human alphaherpesvirus 1, Vero) [µM]	IC50 (B/Jifang/13/97; Influenza B virus) [µM]	further results
CCCOc1ccc(N)c2[nH]c(C(=O)OC)cc12 [Compound 18f, Methyl 7-amino-4-propoxy-1H-indole-2-carboxylate]	> 3.31	< 50	> 29.9	–	IC50 (Cox B3): 29.9 µM
NC(=O)c1ncn([C@@H]2O[C@H](CO)[C@@H](O)[C@H]2O)n1 [RBV, ribavirin, reference compound]	2.58	1060	–	10.1	–
COC(=O)c1cc2c(OCc3ccccc3)cc(N)cc2[nH]1 [Compound 2f, Methyl 6-amino-4-(benzyloxy)-1H-indole-2-carboxylate]	> 25.1	1.59	> 2.78	–	–
COC(=O)c1cc2c(OC)ccc(N)c2[nH]1 [Compound 16f, Methyl 7-amino-4-methoxy-1H-indole-2-carboxylate]	> 3.73	> 33.7	> 33.7	–	–
CCOc1ccc(N)c2[nH]c(C(=O)OC)cc12 [Compound 17f, Methyl 7-amino-4-ethoxy-1H-indole-2-carboxylate]	> 10.6	10.6	10.6	–	activity towards HSV-1 (in words) (HSV-1): showed activity
COC(=O)c1cc2c(OC3CC3)cc(N)cc2[nH]1 [Compound 7f, Methyl 6-amino-4-cyclopropoxy-1H-indole-2-carboxylate]	> 85.5	49.4	> 85.5	–	–
CCOc1cc(N)cc2[nH]c(C(=O)OC)cc12 [Compound 9f, Methyl 6-amino-4-ethoxy-1H-indole-2-carboxylate]	18.3	> 31.7	> 31.7	> 31.7	–
COC(=O)c1cc2c(OCC3CCCCC3)cc(N)cc2[nH]1 [Compound 5f, Methyl 6-amino-4-(cyclohexylmethoxy)-1H-indole-2-carboxylate]	> 8.15	> 2.71	> 8.15	–	–
COC(=O)c1cc2c(OCc3ccccc3)cc(OC)cc2[nH]1 [Compound 12e, Methyl 4-(benzyloxy)-6-methoxy-1H-indole-2-carboxylate]	–	> 7.94	> 7.94	> 23.8	–
COC(=O)c1cc2c(OCc3ccccc3)cc(NC(C)=O)cc2[nH]1 [Compound 2e, Methyl 6-acetamido-4-(benzyloxy)-1H-indole-2-carboxylate]	> 65.7	> 21.9	> 21.9	–	–
COC(=O)c1cc2c(OCC(C)C)cc(N)cc2[nH]1 [Compound 8f, Methyl 6-amino-4-isobutoxy-1H-indole-2-carboxylate]	9.43	7.18	> 28.3	> 9.43	–
COC(=O)c1cc2ccc(NC(C)=O)cc2[nH]1 [Compound 14e, Methyl 6-acetamido-1H-indole-2-carboxylate]	95.8	72.8	> 287	> 95.8	anti-influenza A activity (in words) (A/FM/1/47): showed anti-influenza A activity; anti-Cox B3 activity (in words) (Cox B3): showed anti-Cox B3 activity
COC(=O)c1cc2c(OCC(C)C)cc(NC(C)=O)cc2[nH]1 [Compound 8e, Methyl 6-acetamido-4-isobutoxy-1H-indole-2-carboxylate]	8.13	> 24.4	> 24.4	> 8.13	–
COC(=O)c1cc2c(OCc3ccccc3)cccc2[nH]1 [Compound 13e, Methyl 4-(benzyloxy)-1H-indole-2-carboxylate]	< 52	> 8.79	> 8.79	> 26.4	IC50 (A/FM/1/47): 26.4 µM
C=CCOc1cc(N)cc2[nH]c(C(=O)OC)cc12 [Compound 6f, Methyl 4-(allyloxy)-6-amino-1H-indole-2-carboxylate]	< 52	< 50	> 30.1	> 30.1	IC50 (Cox B3): 30.1 µM
COC(=O)c1cc2c(OCc3ccc(F)cc3)cc(N)cc2[nH]1 [Compound 3f, Methyl 6-amino-4-(4-fluorobenzyloxy)-1H-indole-2-carboxylate]	> 70.8	4.55	> 7.87	–	–
COC(=O)c1cc2ccc(N(C)C)cc2[nH]1 [Compound 15e, Methyl 6-(dimethylamino)-1H-indole-2-carboxylate]	102	< 50	102	> 102	anti-influenza A activity (in words) (A/FM/1/47): showed anti-influenza A activity; anti-Cox B3 activity (in words) (Cox B3): showed anti-Cox B3 activity; IC50 (Cox B3): 44.7 µM; activity towards HSV-1 (in words) (HSV-1): showed activity
COC(=O)c1cc2c(OCc3ccc(OC)cc3)cc(N)cc2[nH]1 [Compound 4f, Methyl 6-amino-4-(4-methoxybenzyloxy)-1H-indole-2-carboxylate]	> 205	> 7.58	> 7.58	–	–
COC(=O)c1cc2c(OC)cccc2[nH]1 [Compound 11e, Methyl 4-methoxy-1H-indole-2-carboxylate]	62.6	108	> 108	> 108	–
COC(=O)c1cc2c(OC(C)C)cc(N)cc2[nH]1 [Compound 10f, Methyl 6-amino-4-isopropoxy-1H-indole-2-carboxylate]	< 52	> 89.6	> 89.6	> 89.6	IC50 (A/FM/1/47): 51.7 µM
Methyl 6-acetimidamido-4-methoxy-1H-indole-2-carboxylate [Compound 1e]	–	–	–	–	IC50 (B/Jifang/13/97): 254 µM; antiviral activity against the influenza B strain (in words) (B/Jifang/13/97): displayed antiviral activity; IC50 (A/FM/1/47): 254 µM; IC50 (Cox B3): > 254 µM; IC50 (HSV-1; HSV-1, 100TCID50, CPE, Reed and Muench): > 254 µM
COC(=O)c1cc2c(OC)cc(N)cc2[nH]1 [Compound 1f, Methyl 6-amino-4-methoxy-1H-indole-2-carboxylate]	< 52	> 33.7	> 33.7	> 33.7	IC50 (A/FM/1/47): 33.7 µM
Nc1nc2c(ncn2COCCO)c(=O)[nH]1 [ACV, Acyclovir, reference compound]	–	–	1.82	–	–
CCOC(=O)C1=C[C@@H](OC(CC)CC)[C@H](NC(C)=O)[C@@H](N)C1 [Oseltamivir, oseltamivir, reference compound]	6.43	–	–	115	–
COC(=O)c1cc2ccc(N)cc2[nH]1 [Compound 14f, Methyl 6-amino-1H-indole-2-carboxylate]	7.53	67.5	> 117	13	antiviral activity against the influenza B strain (in words) (B/Jifang/13/97): displayed antiviral activity; anti-influenza A activity (in words) (A/FM/1/47): showed anti-influenza A activity; anti-Cox B3 activity (in words) (Cox B3): showed anti-Cox B3 activity
